We go through three compounds from patent US6750244B2, “Compounds active at a novel site on receptor-operated calcium channels useful for treatment of neurological disorders and diseases” (NPS Pharmaceuticals, Inc., priority 1993, dated 2004).

Structures are written as SMILES. Read-outs that look alike come from different tables or passages of the source.

One data set concerns NMDA receptor. The data set can be described thus: Inhibition of NMDA/glycine-induced increases in intracellular calcium in cultured rat cerebellar granule cells (RCGC). Conditions: NMDA/glycine-induced increases in intracellular calcium, cultured rat cerebellar granule cells; read-out: IC50 (μM) vs. NMDA. In kind it is cell-based.
Data set [1] deals with thermal nociception. The format is in vivo, rats. The note with it: 25 mg/kg i.p. As to the method:
In this standard assay, the thermal nociceptive stimulus was 52° C. warm water with the latency to tail flick or withdrawal taken as the endpoint.

The test system of the next data set is focal ischemic stroke. The data set can be described thus: Rat model of focal ischemic stroke (vessel occlusion). The note with it: i.p. 2 mg/kg 30 min prior to vessel occlusion and 2 mg/kg 3 hr post-occlusion. The format is in vivo, rats.
Data set [2] addresses T1, norepinephrine uptake site (Rattus norvegicus, UniProt Q63380).
T1 construct: from tissue; host or cells: rat cortical membranes (per the assay title)
Description: Norepinephrine uptake binding assay: [3H]desipramine binding to rat cortical membranes.

A further data set deals with T2, dopamine uptake site (Cavia porcellus, UniProt H0WCX4).
T2 construct: from tissue; host or cells: guinea pig striatal membranes (per the assay title)
Description: Dopamine uptake binding assay: [3H]WIN-35,428 binding to guinea pig striatal membranes.

Data set [3] has as its system thermal nociception. In kind it is in vivo, rats. Conditions: 25 mg/kg i.p. As to the method:
In these experiments, a 52° C. hot plate was used as the nociceptive stimulus.
This is another data set of the same source.

The target of another data set is T3, serotonin uptake site (Rattus norvegicus, UniProt P31652).
T3 construct: from tissue; host or cells: rat forebrain membranes (per the assay title)
The data set can be described thus: Serotonin uptake binding assay: [3H]citalopram binding to rat forebrain membranes.

In the next data set the test system is motor performance. Description: Acute motor impairment (rotorod) in mice. Conditions: Frings mice, i.p. As to the method: (§1) In this assay, Frings and CF1 mice were injected with test compound and placed on a knurled rod which rotated at a speed of 6 rpm. The ability of the mice to maintain equilibrium for long periods of time was determined; those mice that were unable to maintain equilibrium on the rotorod for 1 min in each of 3 trials were considered impaired.
(In general: Falling from the rotarod earlier than controls is read as motor impairment.)

The next data set is described as follows: in vivo. The note with it: mouse, in vivo. The method, then: as §1
Data set [4] has as its system central muscarinic cholinergic receptor. The format is binding, rat.
Data set [5] addresses NMDA receptor-ionophore complex (site labeled by [3H]MK-801). Description: Inhibition of [3H]MK-801 binding in rat cortical/hippocampal washed membrane preparations. Conditions: read-out: IC50 (μM) vs. [3H]MK-801; rat cortical/hippocampal washed membranes.
The subject of data set [6] is maximal electroshock-induced seizures. The data set can be described thus: Maximal electroshock-induced seizures in rats. The note with it: Rattus norvegicus, po, read-out: ED50, maximal electroshock-induced seizures. In kind it is in vivo. On the technique in general: The maximal electroshock test induces tonic seizures with an electrical stimulus.
A short description of data set [7]: Motor toxicity (TD50) in rats. Conditions: rat, in vivo, po.
In the next data set the test system is sound-induced seizures. The data set can be described thus: Sound-induced seizures in Frings mice (reflex epilepsy). In kind it is in vivo. The note with it: Mus musculus, Frings mice.
The subject of data set [8] is mean arterial blood pressure. The note with it: i.v.
The test system of data set [9] is behavior. Description: Behavioral effects in conscious male Wistar rats.
A further data set relates to focal ischemia. Description: Photothrombotic (Rose Bengal) model of focal cerebral ischemia. In kind it is in vivo, rat. Conditions: 10 mg/kg i.p. at 15 min, 3 hr, and again 6 hr post-occlusion. From the text: In a third model of focal cerebral ischemia in the rat, an ischemic infarct was produced by a photothrombotic method using the dye Rose Bengal.
The test system of another data set is seizure threshold. The data set can be described thus: i.v. Metrazol test (seizure threshold) in mice. The format is in vivo.
The subject of data set [10] is maximal electroshock-induced seizures. Description: Maximal electroshock-induced seizures in mice. In kind it is in vivo. Conditions: Mus musculus, ip; mice.
Data set [11] concerns mean arterial pressure, heart rate, ECG. The data set can be described thus: Cardiovascular activity in conscious beagle dogs.
Data set [12] deals with behavior. Description: Behavioral effects in conscious beagle dogs.
For another data set, the system named is temporary focal ischemia. The data set can be described thus: Temporary focal cerebral ischemia (middle cerebral artery occlusion, suture withdrawn after 2 hr). The format is in vivo, rat. The method, then:
In a fourth model of focal cerebral ischemia in the rat, the middle cerebral artery was temporarily occluded by passing a small piece of suture thread through the carotid artery to the region of the middle cerebral artery. The suture thread was withdrawn after an ischemic period of 2 hr. Core body temperature was maintained at 37° C. […]

A further data set concerns T4, L-type calcium channel.
T4 construct: L-type calcium channel: estimated IC50, KCl depolarization-induced increases in intracellular calcium; other: cultured
Description: Inhibition of KCl depolarization-induced increases in intracellular calcium in cultured rat cerebellar granule cells. In kind it is cell-based. Conditions: cultured rat cerebellar granule cells; read-out: L-type calcium channel: estimated IC50, KCl depolarization-induced increases in intracellular calcium. From the text:
The ability of arylalkylamines to inhibit dihydropyridine-sensitive Ca^2+ channels was examined in cerebellar granule cells and a rat aortic smooth muscle cell line, A7r5 cells.

The next data set has as its system PBQ-elicited writhing. The format is in vivo. Conditions: 4 mg/kg i.p. As to the method:
In the first series of experiments, the animals were administered an unpleasant stimulus (2-phenyl-1,4-benzoquinone, PBQ) which elicits a writhing response (abdominal stretching). Typically, the number of writhes occurring in a 5 min observation period is recorded. […] Nonsteroidal antiinflammatory agents are likewise effective in this model.

Where [13] appears, read: 3 mg/kg i.v. (60 sec bolus injection).
Setting [14] is: 10 mg/kg i.v. (60 sec bolus injection).

What is called IC50 is the point on the concentration scale where inhibition reaches its midpoint. The ED50 is the dose at which the effect has come halfway, by size or by number of responders.

T1 sequence (Q63380 1-617): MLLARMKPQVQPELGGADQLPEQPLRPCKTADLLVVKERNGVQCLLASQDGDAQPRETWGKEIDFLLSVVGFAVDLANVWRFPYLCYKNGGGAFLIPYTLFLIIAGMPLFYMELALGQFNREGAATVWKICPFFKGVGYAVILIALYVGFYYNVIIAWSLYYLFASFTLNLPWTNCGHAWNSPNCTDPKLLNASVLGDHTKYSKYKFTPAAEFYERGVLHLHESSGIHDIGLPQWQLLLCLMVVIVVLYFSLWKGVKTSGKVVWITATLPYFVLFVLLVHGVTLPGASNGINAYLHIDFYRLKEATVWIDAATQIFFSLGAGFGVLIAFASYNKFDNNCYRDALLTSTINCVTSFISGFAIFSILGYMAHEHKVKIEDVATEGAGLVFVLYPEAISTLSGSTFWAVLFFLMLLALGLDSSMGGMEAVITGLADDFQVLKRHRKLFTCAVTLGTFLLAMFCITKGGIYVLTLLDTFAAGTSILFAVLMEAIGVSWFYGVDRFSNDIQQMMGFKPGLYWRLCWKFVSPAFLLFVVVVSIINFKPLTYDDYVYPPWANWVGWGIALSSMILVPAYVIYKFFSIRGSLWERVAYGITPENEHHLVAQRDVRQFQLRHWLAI
T3 sequence (P31652 whole entry): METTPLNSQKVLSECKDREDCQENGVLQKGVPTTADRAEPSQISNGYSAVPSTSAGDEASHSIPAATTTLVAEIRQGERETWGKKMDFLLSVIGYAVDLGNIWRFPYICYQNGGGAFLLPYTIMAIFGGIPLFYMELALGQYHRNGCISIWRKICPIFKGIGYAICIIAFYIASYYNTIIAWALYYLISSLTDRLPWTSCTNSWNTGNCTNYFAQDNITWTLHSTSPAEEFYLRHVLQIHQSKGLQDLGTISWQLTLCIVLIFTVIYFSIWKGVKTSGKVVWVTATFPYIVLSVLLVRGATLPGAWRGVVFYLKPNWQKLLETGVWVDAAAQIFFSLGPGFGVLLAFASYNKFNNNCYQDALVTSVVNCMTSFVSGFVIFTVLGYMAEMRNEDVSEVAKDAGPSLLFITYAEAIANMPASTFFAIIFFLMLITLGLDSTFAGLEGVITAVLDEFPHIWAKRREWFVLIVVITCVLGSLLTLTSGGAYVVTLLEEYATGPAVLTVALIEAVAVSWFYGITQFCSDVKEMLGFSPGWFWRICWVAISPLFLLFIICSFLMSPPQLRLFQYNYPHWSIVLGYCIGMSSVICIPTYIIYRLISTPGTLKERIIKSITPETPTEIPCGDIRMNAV
T2 sequence (H0WCX4 1-619): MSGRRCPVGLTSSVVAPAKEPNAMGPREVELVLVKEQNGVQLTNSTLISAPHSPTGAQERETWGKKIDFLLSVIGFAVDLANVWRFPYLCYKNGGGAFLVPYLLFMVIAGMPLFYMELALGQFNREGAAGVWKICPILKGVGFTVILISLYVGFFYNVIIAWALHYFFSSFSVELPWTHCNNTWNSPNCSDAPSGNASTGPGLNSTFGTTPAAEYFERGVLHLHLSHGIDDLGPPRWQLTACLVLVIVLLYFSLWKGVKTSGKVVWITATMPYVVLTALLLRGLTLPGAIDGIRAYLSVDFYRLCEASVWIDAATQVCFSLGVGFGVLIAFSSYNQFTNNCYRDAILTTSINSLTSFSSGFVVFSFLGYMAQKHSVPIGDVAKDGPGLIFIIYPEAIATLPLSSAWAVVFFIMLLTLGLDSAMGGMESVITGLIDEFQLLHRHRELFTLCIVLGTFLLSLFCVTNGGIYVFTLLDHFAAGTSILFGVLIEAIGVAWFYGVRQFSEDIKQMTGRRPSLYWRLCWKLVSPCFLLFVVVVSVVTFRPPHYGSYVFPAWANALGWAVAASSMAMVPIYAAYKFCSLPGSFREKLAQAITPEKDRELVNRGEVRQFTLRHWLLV

With `C[C@H](N)CC(c1cccc(F)c1)c1cccc(F)c1` [Compound 50, 3,3-bis(3-fluorophenyl)-1-methyl-1-propylamine], the IC50 in the data set on NMDA receptor was found to be 0.089 µM; in data set [5], 0.762 µM. In the data set on thermal nociception [1], the “analgesic activity, rat 48° C. tail flick test” value is recorded as “no significant analgesic activity”. For the same compound, the “neuroprotectant activity in a rat model of focal ischemic stroke” value with focal ischemic stroke is “significant neuroprotectant activity”. Also, the “Monoamine uptake binding assays: norepinephrine uptake binding assay, percent block” value in [2] (at 0.1 μM) is 10% at; in data set [2] (at 10 μM), 0.1^g78% at. In addition, the “Monoamine uptake binding assays: dopamine uptake binding assay, percent block” value on dopamine uptake site (at 0.1 μM) was 17% at; at dopamine uptake site (at 10 μM), 0.1^f93% at. In addition, in the data set with thermal nociception [3], the “analgesic activity, rat 52° C. hot plate test” value is listed as “no significant analgesic activity”. The “Monoamine uptake binding assays: serotonin uptake binding assay, percent block” value at serotonin uptake site (at 0.1 μM) is 10^g75% at; on serotonin uptake site (at 10 μM), 0.1^h97% at. In addition, the “TD50 (motor impairment)” value in the data set with motor performance came out at 17.4 mg/kg. The TD50 turned out to be 18.9 mg/kg in “in vivo” (Frings, po) and 20 mg/kg in data set [7]. Moreover, the “Central muscarinic cholinergic receptor: percent block of [3H]QNB binding” value in data set [4] (at 0.1 μM) is listed as 11% at; in data set [4] (at 10 μM), 0.184% at. In addition, the ED50 stood at 28 mg/kg in data set [6], 2.7 mg/kg in the data set with sound-induced seizures (ip) and 9 mg/kg in the data set with sound-induced seizures (oral). The “no significant cardiovascular activity in anesthetized rats at doses up to” value in data set [8] was “up to 5 mg/kg”.
For the compound `CNCCC(c1cccc(F)c1)c1cccc(F)c1` [Compound 60, N-methyl-3,3-bis(3-fluorophenyl)-1-propylamine], the IC50 in the data set on NMDA receptor is 0.416 µM; in data set [2] (read-out: Monoamine uptake binding assays: norepinephrine uptake binding assay, IC50), 914 nM; on serotonin uptake site (read-out: Monoamine uptake binding assays: serotonin uptake binding assay, IC50), 68 nM; in data set [5], 0.641 µM; in the data set on L-type calcium channel, 2300 nM. Besides, the behavioral effects entry was “Straub tail, convulsions, and death” in the data set on behavior [9] (16 mg/kg i.v.); “excitation, stereotypies, increased reactivity to touch, increased muscle tone, and tremor” in the data set with behavior [9] (dose of a mg/kg i.v.); “no significant behavioral effects” in the data set with behavior [9] (doses up to 4 mg/kg i.v.); “a slight increase in respiratory rate” in the data set on behavior [12] (setting [13]); “dilated pupils, whole body tremors, salivation, and urination” with behavior [12] (setting [14]); “no significant behavioral effects” with behavior [12] (0.3 and 1 mg/kg i.v. (60 sec bolus injection)). The “neuroprotectant activity in a rat model of focal ischemic stroke” value in the data set on focal ischemic stroke is reported as “significant neuroprotectant activity”. The “Monoamine uptake binding assays: norepinephrine uptake binding assay, percent block” value in [2] (at 0.1 μM) is listed as 16%; in data set [2] (at 10 μM), “at 0.1^g64%”. The “neuroprotectant activity, photothrombotic model” value with focal ischemia is “no significant neuroprotectant activity”. The “seizure threshold, i.v. Metrazol test” value is listed as “no effect on seizure threshold” in the data set with seizure threshold (1 and 4 mg/kg i.p.); “a reduction in seizure threshold” in the data set with seizure threshold (8 and 17 mg/kg i.p.). Also, the median effective dose (ED50) came to 8.17 mg/kg in [10], 4.4 mg/kg with sound-induced seizures (ip) and 10 mg/kg in the data set on sound-induced seizures (oral). Moreover, in data set [11] (0.3 mg/kg i.v. (60 sec bolus injection)), the cardiovascular activity entry was “no significant cardiovascular activity”. Besides, the mean arterial pressure result in data set [11] (1 mg/kg i.v. (60 sec bolus injection)) was “transient increases in mean arterial pressure”; in [11] (setting [13]) it was “transient increases in mean arterial pressure”; in [11] (setting [14]), “larger magnitude and longer duration effects”. Besides, the heart rate result in [11] (setting [13]) and in data set [11] (setting [14]) was “transient increases in heart rate” throughout. Also, the “changes in the ECG” value in data set [11] (doses up to 10 mg/kg i.v. (60 sec bolus injection)) is on record as “no significant changes in the ECG”. In addition, the “neuroprotectant activity in a rat model of temporary focal ischemic stroke” value is reported as “significant neuroprotectant activity” in the data set with temporary focal ischemia (i.p. or i.v. 1 mg/kg 2 hr and again 8 hr post-occlusion); “significant neuroprotectant activity” in the data set with temporary focal ischemia (i.v. 1 mg/kg 2 hr post-occlusion). In addition, the TD50 is 9.2 mg/kg in “in vivo” (Frings, ip); 25.6 mg/kg in the data set “in vivo” (Frings, po); 17.3 mg/kg in “in vivo” (ip). Besides, the “Central muscarinic cholinergic receptor: percent block of [3H]QNB binding” value in data set [4] (at 0.1 μM) was 13% at; in data set [4] (at 10 μM), 0.193% at. The “dose without neuronal vacuolization” value with neuronal vacuolization (i.p.) worked out at 20 mg/kg; in the data set on neuronal vacuolization (i.v.) it was 10 mg/kg.
Regarding `CN1CC[C@]23c4c5ccc(O)c4O[C@H]2[C@@H](O)C=C[C@H]3[C@H]1C5` [morphine, reference compound], the “block of the writhing response” value in the data set on PBQ-elicited writhing amounted to 100%.
